Results from US8258114B2, “Modulation of glucose-6-phosphatase translocase expression” (Isis Pharmaceuticals, Inc., priority 2004, dated 2012).

Tests used:
[1] = tested on: ob/ob mice; assay: Oral glucose tolerance test in ob/ob mice (Table 6); type: in vivo, mouse; details: 25 mg/kg twice weekly; for plasma glucose, OGTT: after 6th dose
Protocol: The mice described in Example 7 were evaluated for performance on glucose tolerance tests after the 6th dose of saline or antisense oligonucleotides. Through measurement of glucose levels following the administration of a bolus of glucose, tolerance tests assess the physiological response to a glucose challenge.
Oral glucose tolerance tests (OGTT) were performed during the third week of treatment with saline, ISIS 116847 (targeted to PTEN, SEQ ID NO: 143), ISIS 148985 (SEQ ID NO: 118), or ISIS 149008 (SEQ ID NO: 141). To provide a baseline glucose level, fasted blood glucose levels were measured before the challenge. Glucose was administered by oral gavage via an 18 g gavage needle at a dose of 1 g/kg. Plasma glucose levels were measured for 30, 60, 90 and 120 minutes post-challenge using an Ascencia Glucometer Elite XL (Bayer, Tarrytown, N.Y.).
The results are presented in Table 6 as the average result (plasma glucose in mg/dL) from each treatment group (n=7). Saline-treated mice served as the control to which glucose levels were compared.

[2] = mouse, in vivo, sc, 25 mg/kg
Protocol: Seven-week old male C57B1/6J-Lepr db/db mice (Jackson Laboratory, Bar Harbor, Me.) were fed a diet with a fat content of about 14% and were subcutaneously injected with one or more of the oligomeric compounds of the invention or a control compound at a dose of 25 mg/kg two times per week. Glucose-6-phosphatase translocase antisense oligonucleotides used were ISIS 148985 (SEQ ID NO: 118) and ISIS 149008 (SEQ ID NO: 141). ISIS 116847 (SEQ ID NO: 143), targeted to mouse PTEN, was used as a positive control. The scrambled control oligonucleotide ISIS 141923 ([…], incorporated herein as SEQ ID NO: 144) served as a negative control along with saline-injected animals. ISIS 141923 and ISIS 116847 are chimeric oligonucleotides (“gapmers”) 20 nucleotides in length, composed of a central “gap” region consisting of 10 2′-deoxynucleotides, which is flanked on both sides (5′ and 3′) by five-nucleotide “wings”. The wings are composed of 2′-O-(2-methoxyethyl) nucleotides, also known as 2′-MOE nucleotides. The internucleoside (backbone) linkages are phosphorothioate throughout the oligonucleotide. All cytidine residues are 5-methylcytidines.
Patients with the human glycogen storage disease type 1b have mutations in the glucose-6-phosphatase translocase gene. Because one manifestation of these mutations is a defect in hepatic glycogen […] leading to glycogen accumulation in the liver, the db/db mice were further evaluated at the end of the treatment period for liver glycogen stores. Tissue glycogen was measured using the Glucose Trinder Reagent (Sigma-Aldrich, St. Louis, Mo.). Results are presented as the average level from 5 animals per treatment. Glycogen levels of mice treated with saline alone were approximately 46 mg/g of tissue. Levels in mice treated with the positive control antisense compound ISIS 116847 had decreased levels of approximately 30 mg/g. Mice treated with the scrambled control compound ISIS 141923 had levels more similar to saline control of approximately 39 mg/g. Mice treated with ISIS 149008 or 148985, the antisense inhibitors of glucose-6-phosphatase translocase, had glycogen levels of approximately 38 mg/g and 37 mg/g, respectively.

[3] = tested on: glucose-6-phosphatase translocase mRNA; assay: Target mRNA reduction in liver of db/db mice, dose-response study; type: in vivo, mouse
Protocol: Seven-week old male C57B1/6J-Lepr db/db mice (Jackson Laboratory, Bar Harbor, Me.) were fed a diet with a fat content of about 14% (Formulab Diet 5008) and were subcutaneously injected with ISIS 116847 (SEQ ID NO: 143), ISIS 141923 (SEQ ID NO: 144), or ISIS 148985 (SEQ ID NO: 118), an antisense inhibitor of glucose-6-phosphatase translocase, at a dose of 25 mg/kg two times per week for 4 weeks. […] Saline-injected animals served as controls. 48 hours after the eighth and final dose was administered, mice were sacrificed and target levels were evaluated in liver. RNA isolation and target mRNA expression level quantitation were performed as described by other examples herein.
Glucose-6-phosphatase translocase mRNA levels in db/db mouse livers were measured at the end of study using RIBOGREEN™ RNA quantification reagent (Molecular Probes, Inc. Eugene, Oreg.) as taught in previous examples above. Data are expressed as the average of 5 animals per treatment group. […] Target mRNA levels were reduced by approximately 21% by ISIS 148985. […] Therefore, antisense inhibitors of glucose-6-phosphatase translocase reduced target mRNA levels in the liver of db/db mice, and ISIS 149008 did so in a dose-dependent manner.

[4] = tested on: db/db mice; assay: Oral glucose tolerance test in db/db mice (Table 10); type: in vivo, mouse
Protocol: The mice described in Example 11 were evaluated for performance on glucose tolerance tests after the 6th dose of saline or antisense oligonucleotides. Through measurement of glucose levels following the administration of a bolus of glucose, tolerance tests assess the physiological response to a glucose challenge.
Oral glucose tolerance tests (OGTT) were performed during week 3 of treatment with saline, ISIS 116847 (targeted to PTEN, SEQ ID NO: 143), ISIS 149008 (SEQ ID NO: 141), ISIS 148985 (SEQ ID NO: 118), or ISIS 141923 (SEQ ID NO: 144). To provide a baseline glucose level, fasted blood glucose levels were measured before the challenge. Glucose was administered by oral gavage via an 18 g gavage needle at a dose of 1 g/kg. Plasma glucose levels were measured for 30, 60, 90 and 120 minutes post-challenge using an Ascencia Glucometer Elite XL (Bayer, Tarrytown, N.Y.).
The results are presented in Table 10 as the average plasma glucose level (in mg/dL) per time point from each treatment group (n=7).

[5] = 0 min post-glucose challenge (fasted)
[6] = 25 mg/kg twice weekly for 4 weeks
[7] = 25 mg/kg twice weekly, week 3, 0 min post-glucose challenge (fasted)
[8] = 25 mg/kg twice weekly, week 3, 30 min
[9] = 25 mg/kg twice weekly, week 3, 60 min
[10] = 25 mg/kg twice weekly, week 3, 90 min
[11] = 25 mg/kg twice weekly, week 3, 120 min

Sequence | plasma glucose, OGTT [1, 5] [mg/dL] | plasma glucose, OGTT ([1]; 30 min post-glucose challenge) [mg/dL] | plasma glucose, OGTT ([1]; 60 min post-glucose challenge) [mg/dL] | plasma glucose, OGTT ([1]; 90 min post-glucose challenge) [mg/dL] | plasma glucose, OGTT ([1]; 120 min post-glucose challenge) [mg/dL] | Liver glycogen levels [2] | Glucose-6-phosphatase translocase mRNA levels in liver, reduction compared to saline [3, 6] | plasma glucose, OGTT [4, 7] [mg/dL] | plasma glucose, OGTT [4, 8] [mg/dL] | plasma glucose, OGTT [4, 9] [mg/dL] | plasma glucose, OGTT [4, 10] [mg/dL] | plasma glucose, OGTT [4, 11] [mg/dL] | other results
GCTCCATAGCGAGGACTCGA (chemistry not given here) [ISIS 148985] | 293 | 489 | 433 | 331 | 305 | ~37 mg/g | approximately 21% | 230 | 494 | 445 | 335 | 355 | –
CTGCTAGCCTCTGGATTTGA (chemistry not given here) [ISIS 116847, positive control oligonucleotide targeted to mouse PTEN, reference compound] | 286 | 290 | 238 | 229 | 194 | approximately 30 mg/g | approximately 27% | 181 | 441 | 367 | 305 | 286 | –
CCTTCCCTGAAGGTTCCTCC (chemistry not given here) [ISIS 141923, scrambled control oligonucleotide, negative control, reference compound] | – | – | – | – | – | approximately 39 mg/g | approximately 1% | 284 | 522 | 445 | 338 | 339 | –
TATACAAGTCGGTTTGCCCT (chemistry not given here) [ISIS 149008] | 237 | 372 | 276 | 238 | 214 | approximately 38 mg/g | approximately 81% | 227 | 462 | 326 | 272 | 231 | glucose tolerance (in words) ([1]; OGTT): improved glucose tolerance; Glucose-6-phosphatase translocase mRNA levels in liver, reduction compared to saline ([3]; 6.25 mg/kg twice weekly for 4 weeks): approximately 45%; Glucose-6-phosphatase translocase mRNA levels in liver, reduction compared to saline ([3]; 12.5 mg/kg twice weekly for 4 weeks): approximately 69%; plasma glucose, OGTT ([4]; 6 mg/kg twice weekly, week 3, 0 min (fasted)): 204 mg/dL; plasma glucose, OGTT ([4]; 6 mg/kg twice weekly, week 3, 30 min): 518 mg/dL; plasma glucose, OGTT ([4]; 6 mg/kg twice weekly, week 3, 60 min): 468 mg/dL; plasma glucose, OGTT ([4]; 6 mg/kg twice weekly, week 3, 90 min): 377 mg/dL; plasma glucose, OGTT ([4]; 6 mg/kg twice weekly, week 3, 120 min): 330 mg/dL; plasma glucose, OGTT ([4]; 12.5 mg/kg twice weekly, week 3, 0 min (fasted)): 152 mg/dL; plasma glucose, OGTT ([4]; 12.5 mg/kg twice weekly, week 3, 30 min): 529 mg/dL; plasma glucose, OGTT ([4]; 12.5 mg/kg twice weekly, week 3, 60 min): 427 mg/dL; plasma glucose, OGTT ([4]; 12.5 mg/kg twice weekly, week 3, 90 min): 348 mg/dL; plasma glucose, OGTT ([4]; 12.5 mg/kg twice weekly, week 3, 120 min): 329 mg/dL; area under the curve (AUC) of OGTT glucose values compared to saline (in words) ([4]; 25 mg/kg): significantly reduced the AUC; glucose tolerance (in words) ([4]; 6.25 to 25 mg/kg): dose-dependent improvement in glucose tolerance
